One block for each compound: values may come before it.
How the values were obtained:
DrmAB [1] = target: T1, DrmAB (Serratia, UniProt A0A979HMQ0); experiment: ATPase assay, absorbance at […] nm; assay type: biochemical; settings: needs unmethylated DNA stem loop; mere turnover
T1 construct: DrmAB heterodimer (~1:1, ~220 kDa) co-expressed in E. coli BL21-AI; Ni-NTA and size exclusion
T1 sequence (A0A979HMQ0 1-1325): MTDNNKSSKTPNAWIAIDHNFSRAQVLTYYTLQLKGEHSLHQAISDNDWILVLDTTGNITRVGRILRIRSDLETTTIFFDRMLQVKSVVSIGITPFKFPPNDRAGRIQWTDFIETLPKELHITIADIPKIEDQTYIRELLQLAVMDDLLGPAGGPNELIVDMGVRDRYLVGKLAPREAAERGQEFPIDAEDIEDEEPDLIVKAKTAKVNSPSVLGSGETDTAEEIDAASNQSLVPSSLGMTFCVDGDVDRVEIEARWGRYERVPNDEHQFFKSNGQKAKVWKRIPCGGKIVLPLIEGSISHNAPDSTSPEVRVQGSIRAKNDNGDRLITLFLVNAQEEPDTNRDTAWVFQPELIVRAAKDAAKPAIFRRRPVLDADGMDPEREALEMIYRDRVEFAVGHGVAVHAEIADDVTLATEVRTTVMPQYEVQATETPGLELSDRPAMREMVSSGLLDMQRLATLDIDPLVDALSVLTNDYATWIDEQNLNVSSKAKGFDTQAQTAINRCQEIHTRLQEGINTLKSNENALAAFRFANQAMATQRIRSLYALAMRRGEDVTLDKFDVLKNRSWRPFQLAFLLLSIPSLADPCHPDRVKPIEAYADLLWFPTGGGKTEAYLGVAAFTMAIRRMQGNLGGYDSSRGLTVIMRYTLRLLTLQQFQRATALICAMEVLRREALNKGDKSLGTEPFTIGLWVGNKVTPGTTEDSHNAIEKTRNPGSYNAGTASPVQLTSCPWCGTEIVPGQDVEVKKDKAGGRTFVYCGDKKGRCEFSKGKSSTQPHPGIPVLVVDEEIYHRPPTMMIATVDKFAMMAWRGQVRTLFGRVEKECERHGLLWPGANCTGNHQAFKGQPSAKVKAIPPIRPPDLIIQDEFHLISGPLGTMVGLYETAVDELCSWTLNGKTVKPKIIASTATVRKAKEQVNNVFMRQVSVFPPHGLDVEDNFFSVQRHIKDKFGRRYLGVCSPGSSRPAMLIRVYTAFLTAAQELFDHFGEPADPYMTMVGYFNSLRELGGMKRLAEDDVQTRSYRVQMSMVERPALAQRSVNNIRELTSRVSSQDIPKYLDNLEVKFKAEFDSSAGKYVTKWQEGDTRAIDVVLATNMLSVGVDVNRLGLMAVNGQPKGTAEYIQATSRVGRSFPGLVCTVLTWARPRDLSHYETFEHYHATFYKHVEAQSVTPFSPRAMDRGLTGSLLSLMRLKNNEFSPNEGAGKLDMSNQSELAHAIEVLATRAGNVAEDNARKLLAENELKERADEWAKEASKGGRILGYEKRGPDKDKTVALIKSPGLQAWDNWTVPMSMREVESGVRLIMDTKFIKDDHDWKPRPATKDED
T1 sequence (A0A979HMQ1 1-619 partner): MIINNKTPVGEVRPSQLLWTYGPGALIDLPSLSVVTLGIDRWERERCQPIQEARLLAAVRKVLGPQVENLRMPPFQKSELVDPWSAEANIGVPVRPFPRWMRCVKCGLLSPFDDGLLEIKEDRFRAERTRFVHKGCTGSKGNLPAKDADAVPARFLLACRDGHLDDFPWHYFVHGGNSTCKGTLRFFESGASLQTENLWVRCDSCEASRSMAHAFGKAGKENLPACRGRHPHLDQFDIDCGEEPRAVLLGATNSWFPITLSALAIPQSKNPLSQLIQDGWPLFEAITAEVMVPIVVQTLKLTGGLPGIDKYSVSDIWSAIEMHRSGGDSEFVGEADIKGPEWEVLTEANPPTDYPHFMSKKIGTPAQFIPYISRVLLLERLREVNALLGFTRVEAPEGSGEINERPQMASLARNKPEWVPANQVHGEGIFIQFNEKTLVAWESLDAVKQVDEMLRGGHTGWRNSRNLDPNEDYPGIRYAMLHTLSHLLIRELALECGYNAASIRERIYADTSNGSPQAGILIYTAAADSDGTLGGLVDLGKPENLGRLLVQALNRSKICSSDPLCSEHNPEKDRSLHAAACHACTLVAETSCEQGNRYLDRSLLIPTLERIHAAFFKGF

DrmAB [2] = target: T1, DrmAB; experiment: cryo-EM structure ([…]-3.[…] A); assay type: binding; settings: 1 mM ADP, 10 uM DrmAB; pH 7.4, ~25 C; canonical ATP site between RecA1 and RecA2 of DrmA; also in DNA-bound complex 7S9W
[3] = target: DrmB (Serratia sp. SCBI DISARM DUF1998-containing protein) (Serratia sp. SCBI); experiment: co-purification (Ni-NTA, then SEC); proteins co-expressed in E. coli BL21-AI; His6-DrmB captured on Ni-NTA (25 mM HEPES pH 8, 600 mM NaCl), then HiLoad 16/600 Superdex 200 (25 mM HEPES pH 8, 150 mM NaCl, 5% glycerol, 1 mM DTT), 4 °C; fractions checked by SDS-PAGE

Compound: Nc1ncnc2c1ncn2[C@@H]1O[C@H](COP(=O)(O)OP(=O)(O)OP(=O)(O)O)[C@@H](O)[C@H]1O [ATP]
ATPase assay, absorbance at 360 nm (DrmAB [1]): Robust ATPase activity is strongly stimulated by unmethylated DNA

Compound: Nc1ncnc2c1ncn2[C@@H]1O[C@H](COP(=O)(O)OP(=O)(O)O)[C@@H](O)[C@H]1O [ADP]
cryo-EM structure (3.3-3.4 A) (DrmAB [2]): We observed strong density corresponding to ADP within our DNA-bound (Fig. 2e) and DNA-free maps

stoichiometry N [3]: 1
Compound: DrmA (Serratia sp. SCBI DISARM helicase) (natural protein)

From PMC9142583, “Structural basis for broad anti-phage immunity by DISARM” (Nature Communications, 2022)
